Test results: ChEMBL document CHEMBL1201862, “PubChem BioAssay data set” (2004)
Calls of active or inactive are those of the source.

Key:
[1] = molecular target: T1, Trace amine-associated receptor 1 (Homo sapiens, UniProt Q96RJ0); test: Counterscreen for antagonists of the human trace amine associated receptor 1 (hTAAR1): Fluorescence-based cell-based high throughput dose response assay to identify TAAR1 Agonists.; format: functional
T1 sequence (Q96RJ0 whole entry): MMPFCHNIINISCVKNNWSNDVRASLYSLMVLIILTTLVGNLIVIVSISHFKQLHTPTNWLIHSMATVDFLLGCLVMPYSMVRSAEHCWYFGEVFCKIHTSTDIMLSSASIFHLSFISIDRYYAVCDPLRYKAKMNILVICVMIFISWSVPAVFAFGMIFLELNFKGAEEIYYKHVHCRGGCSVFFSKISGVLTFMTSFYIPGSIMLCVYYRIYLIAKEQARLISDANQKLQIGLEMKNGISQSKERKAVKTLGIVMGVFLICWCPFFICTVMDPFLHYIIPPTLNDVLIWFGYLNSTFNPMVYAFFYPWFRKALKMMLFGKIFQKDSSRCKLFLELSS

[2] = Counterscreen for antagonists of the human trace amine associated receptor 1 (hTAAR1): Fluorescence-based cell-based high throughput dose response assay to identify nonselective Ga16 antagonists.; format: functional
[3] = molecular target: T2, Aryl hydrocarbon receptor (Homo sapiens, UniProt P35869); test: Luminescence-based cell-based high throughput dose response assay for activators of the Aryl Hydrocarbon Receptor (AHR). [Related pubchem assays: 2796 (Primary screen (AHR activators in singlicate)), 2845 (Confirmation screen (AHR activators in triplicate)), 434939 (Counterscreen (PXR activators in triplicate)), 2804 (Summary (AHR activators))]; format: ADME
T2 sequence (P35869 whole entry): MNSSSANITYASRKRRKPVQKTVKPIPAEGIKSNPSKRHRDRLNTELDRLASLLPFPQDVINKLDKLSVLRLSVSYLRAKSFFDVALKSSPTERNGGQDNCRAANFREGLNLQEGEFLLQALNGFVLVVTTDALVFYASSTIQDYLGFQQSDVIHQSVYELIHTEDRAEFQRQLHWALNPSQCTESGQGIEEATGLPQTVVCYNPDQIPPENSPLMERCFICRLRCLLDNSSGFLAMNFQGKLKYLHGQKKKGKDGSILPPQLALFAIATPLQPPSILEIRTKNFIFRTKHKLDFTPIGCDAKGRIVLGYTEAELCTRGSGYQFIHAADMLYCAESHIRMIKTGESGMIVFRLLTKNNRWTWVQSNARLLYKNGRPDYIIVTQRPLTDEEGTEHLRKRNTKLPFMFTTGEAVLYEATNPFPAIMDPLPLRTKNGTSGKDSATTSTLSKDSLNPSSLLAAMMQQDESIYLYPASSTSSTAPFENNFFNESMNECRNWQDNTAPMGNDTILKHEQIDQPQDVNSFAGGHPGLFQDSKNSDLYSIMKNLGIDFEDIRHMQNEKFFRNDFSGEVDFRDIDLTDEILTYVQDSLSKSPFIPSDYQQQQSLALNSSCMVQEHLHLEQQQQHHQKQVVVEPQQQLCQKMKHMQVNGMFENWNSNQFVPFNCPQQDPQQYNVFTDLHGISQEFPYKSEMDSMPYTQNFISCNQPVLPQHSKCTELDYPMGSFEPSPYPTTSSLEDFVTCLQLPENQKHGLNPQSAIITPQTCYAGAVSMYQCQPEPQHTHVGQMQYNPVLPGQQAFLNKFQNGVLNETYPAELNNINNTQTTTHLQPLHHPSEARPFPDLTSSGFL

[4] = Counterscreen for […] of the human trace amine associated receptor 1 (TAAR1): Fluorescence-based cell-based high throughput dose response assay to identify nonselective Ga16 agonists.; format: functional
H4 = test: Luminescence Cell-Based Dose Response HTS to Identify Activators of 5'UTR Stem-Loop Driven Prion Protein mRNA Translation in H4 Neuroglioblastoma Cells. [Related pubchem assays: 1829 (Project Summary), 1814 (Primary HTS)]; format: functional; settings: Homo sapiens
[5] = molecular target: T1, Trace amine-associated receptor 1; test: Fluorescence-based cell-based high throughput dose response assay to identify antagonists of the human trace amine associated receptor 1 (TAAR1).; format: functional
[6] = Luminescence Cell-Based Dose Response HTS to Identify Activators of Luciferase Translation or Activity in H4 […] Cells. [Related pubchem assays: 1829 (Project Summary), 1814 (Primary HTS)]; format: functional
[7] = Fluorescence-based cell-based high throughput dose response assay for inhibitors of the interaction of nucleotide-binding oligomerization domain containing 2 (NOD2) and the receptor-interacting serine-threonine kinase 2 (RIPK2).; format: functional; settings: Homo sapiens
Coagulation factor XII = molecular target: T3, Coagulation factor XII (Homo sapiens, UniProt P00748); format: functional;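 note: activated factor XIIa alpha cleaving a fluorogenic AMC peptide substrate; inhibitor potency from loss of enzyme activity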
T3 sequence (P00748 whole entry): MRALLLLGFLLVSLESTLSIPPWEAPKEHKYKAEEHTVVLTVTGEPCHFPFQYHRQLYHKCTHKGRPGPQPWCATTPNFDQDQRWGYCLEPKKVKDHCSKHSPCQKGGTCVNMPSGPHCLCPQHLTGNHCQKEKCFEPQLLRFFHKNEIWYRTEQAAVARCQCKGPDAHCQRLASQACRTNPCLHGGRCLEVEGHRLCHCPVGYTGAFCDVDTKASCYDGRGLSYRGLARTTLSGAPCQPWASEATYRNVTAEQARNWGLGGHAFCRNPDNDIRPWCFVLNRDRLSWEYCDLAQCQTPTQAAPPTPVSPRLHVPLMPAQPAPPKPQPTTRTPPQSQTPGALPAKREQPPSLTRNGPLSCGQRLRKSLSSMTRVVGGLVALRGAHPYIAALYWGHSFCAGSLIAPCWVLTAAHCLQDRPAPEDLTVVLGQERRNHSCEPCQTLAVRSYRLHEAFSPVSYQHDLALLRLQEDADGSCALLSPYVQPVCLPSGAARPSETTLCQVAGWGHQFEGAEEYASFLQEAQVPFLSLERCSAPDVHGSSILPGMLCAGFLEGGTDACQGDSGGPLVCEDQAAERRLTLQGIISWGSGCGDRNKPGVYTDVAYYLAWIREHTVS

Beta-lactamase [8] = molecular target: T4, Beta-lactamase (Pseudomonas aeruginosa, UniProt Q79MP6); test: […] counterscreen for selective VIM-2 inhibitors: dose response biochemical high throughput screening assay to identify inhibitors of IMP-1 metallo-beta-lactamase.
Beta-lactamase [9] = molecular target: T5, Beta-lactamase (Salmonella choleraesuis (strain SC-B67), UniProt Q5J463); test: Epi-absorbance-based counterscreen for selective VIM-2 inhibitors: dose response biochemical high throughput screening assay to identify inhibitors of TEM-1 serine-beta-lactamase.
Beta-lactamase [10] = molecular target: T4, Beta-lactamase; test: inhibition of IMP-1 beta-lactamase activity – biochemical, epi-absorbance, selectivity assay for VIM-2 inhibitor project, dose response (AID 1920)
[11] = viability loss in HEK293T cells – cell-based, cherry-picks, cytotoxicity control for HIV Vif inhibitor project, dose response (AID 652208); format: functional
[12] = Luminescence Cell-Based Dose Retest to Confirm Inhibitors of Cancer Stem Cells. [Related pubchem assays (depositor defined):AID2717, AID2721]; format: functional; settings: Homo sapiens
Beta-lactamase [13] = molecular target: T4, Beta-lactamase
Beta-lactamase [14] = molecular target: T5, Beta-lactamase
Vero = test: viability loss in Vero cells – cell-based, plate reader, cherry-pick samples, cytotoxicity control, dose response (AID 687020); format: functional; settings: Chlorocebus sabaeus
[15] = molecular target: T6, Sentrin-specific protease 1 (Homo sapiens, UniProt Q9P0U3); test: Dose response confirmation of small molecule inhibitors of the catalytic domain of the SUMO protease, SENP1 in a FRET assay.; format: functional; settings: read-out: IC50_Mean
[16] = molecular target: T6, Sentrin-specific protease 1; test: SENP1 catalytic domain blockers, concentration series – biochemical, kinetic FRET, dose response (AID 651697); format: functional; settings: read-out: IC50_Mean
[17] = molecular target: 1-phosphatidylinositol 4,5-bisphosphate phosphodiesterase beta-3 (Homo sapiens, UniProt Q01970); test: Fluorescence-based biochemical high throughput dose response assay to identify inhibitors of phospholipase C isozymes (PLC-B3).
[18] = molecular target: 1-phosphatidylinositol 4,5-bisphosphate phosphodiesterase gamma-1 (Homo sapiens, UniProt P19174); test: Counterscreen for inhibitors of phospholipase C isozymes (PLC-B3): Fluorescence-based biochemical high throughput dose response assay to identify inhibitors of phospholipase C isozymes (PLC-gamma1).
[19] = inhibition of ARNT PAS-B/TACC3 complex formation – biochemical, AlphaScreen, cherry-picked samples, confirmation (AID 651703); format: functional, Homo sapiens;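 note: His-tagged ARNT PAS-B domain paired with GST-TACC3 E629A dimer coactivator fragment; potency of inhibitors that break up the complex and lower AlphaScreen signal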

T4 sequence (Q79MP6 whole entry): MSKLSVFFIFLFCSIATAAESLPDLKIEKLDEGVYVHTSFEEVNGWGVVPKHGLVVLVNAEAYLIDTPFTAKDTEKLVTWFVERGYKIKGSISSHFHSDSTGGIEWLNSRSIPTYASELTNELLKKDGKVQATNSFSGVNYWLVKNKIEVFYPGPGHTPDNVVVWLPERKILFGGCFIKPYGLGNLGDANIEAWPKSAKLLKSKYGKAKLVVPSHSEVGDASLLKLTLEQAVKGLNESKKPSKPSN
T6 sequence (Q9P0U3 whole entry, the tested form may be a part): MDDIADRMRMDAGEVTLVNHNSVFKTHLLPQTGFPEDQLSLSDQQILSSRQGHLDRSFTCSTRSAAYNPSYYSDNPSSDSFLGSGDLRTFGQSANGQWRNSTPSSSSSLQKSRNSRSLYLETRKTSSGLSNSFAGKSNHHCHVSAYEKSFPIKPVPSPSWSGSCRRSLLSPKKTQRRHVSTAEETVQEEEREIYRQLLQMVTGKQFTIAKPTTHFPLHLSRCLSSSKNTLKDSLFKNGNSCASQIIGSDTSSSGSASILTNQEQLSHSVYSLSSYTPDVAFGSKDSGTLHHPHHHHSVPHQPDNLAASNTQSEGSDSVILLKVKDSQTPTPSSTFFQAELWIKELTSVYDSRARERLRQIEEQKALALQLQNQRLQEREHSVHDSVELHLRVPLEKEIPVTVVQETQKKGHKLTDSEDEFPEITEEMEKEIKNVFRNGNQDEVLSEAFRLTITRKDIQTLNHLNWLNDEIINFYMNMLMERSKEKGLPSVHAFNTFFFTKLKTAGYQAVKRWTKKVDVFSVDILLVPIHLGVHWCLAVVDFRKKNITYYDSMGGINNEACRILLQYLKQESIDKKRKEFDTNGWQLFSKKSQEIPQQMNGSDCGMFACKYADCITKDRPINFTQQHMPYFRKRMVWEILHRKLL
T5 sequence (Q5J463 whole entry): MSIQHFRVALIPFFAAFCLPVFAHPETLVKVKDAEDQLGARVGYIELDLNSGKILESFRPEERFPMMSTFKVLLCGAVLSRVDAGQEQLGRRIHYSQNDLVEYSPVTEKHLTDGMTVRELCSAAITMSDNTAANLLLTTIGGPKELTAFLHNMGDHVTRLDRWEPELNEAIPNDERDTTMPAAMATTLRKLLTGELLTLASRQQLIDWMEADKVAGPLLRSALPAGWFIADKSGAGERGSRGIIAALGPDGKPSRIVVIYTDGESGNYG
1-phosphatidylinositol 4,5-bisphosphate phosphodiesterase beta-3, sequence (Q01970 whole entry): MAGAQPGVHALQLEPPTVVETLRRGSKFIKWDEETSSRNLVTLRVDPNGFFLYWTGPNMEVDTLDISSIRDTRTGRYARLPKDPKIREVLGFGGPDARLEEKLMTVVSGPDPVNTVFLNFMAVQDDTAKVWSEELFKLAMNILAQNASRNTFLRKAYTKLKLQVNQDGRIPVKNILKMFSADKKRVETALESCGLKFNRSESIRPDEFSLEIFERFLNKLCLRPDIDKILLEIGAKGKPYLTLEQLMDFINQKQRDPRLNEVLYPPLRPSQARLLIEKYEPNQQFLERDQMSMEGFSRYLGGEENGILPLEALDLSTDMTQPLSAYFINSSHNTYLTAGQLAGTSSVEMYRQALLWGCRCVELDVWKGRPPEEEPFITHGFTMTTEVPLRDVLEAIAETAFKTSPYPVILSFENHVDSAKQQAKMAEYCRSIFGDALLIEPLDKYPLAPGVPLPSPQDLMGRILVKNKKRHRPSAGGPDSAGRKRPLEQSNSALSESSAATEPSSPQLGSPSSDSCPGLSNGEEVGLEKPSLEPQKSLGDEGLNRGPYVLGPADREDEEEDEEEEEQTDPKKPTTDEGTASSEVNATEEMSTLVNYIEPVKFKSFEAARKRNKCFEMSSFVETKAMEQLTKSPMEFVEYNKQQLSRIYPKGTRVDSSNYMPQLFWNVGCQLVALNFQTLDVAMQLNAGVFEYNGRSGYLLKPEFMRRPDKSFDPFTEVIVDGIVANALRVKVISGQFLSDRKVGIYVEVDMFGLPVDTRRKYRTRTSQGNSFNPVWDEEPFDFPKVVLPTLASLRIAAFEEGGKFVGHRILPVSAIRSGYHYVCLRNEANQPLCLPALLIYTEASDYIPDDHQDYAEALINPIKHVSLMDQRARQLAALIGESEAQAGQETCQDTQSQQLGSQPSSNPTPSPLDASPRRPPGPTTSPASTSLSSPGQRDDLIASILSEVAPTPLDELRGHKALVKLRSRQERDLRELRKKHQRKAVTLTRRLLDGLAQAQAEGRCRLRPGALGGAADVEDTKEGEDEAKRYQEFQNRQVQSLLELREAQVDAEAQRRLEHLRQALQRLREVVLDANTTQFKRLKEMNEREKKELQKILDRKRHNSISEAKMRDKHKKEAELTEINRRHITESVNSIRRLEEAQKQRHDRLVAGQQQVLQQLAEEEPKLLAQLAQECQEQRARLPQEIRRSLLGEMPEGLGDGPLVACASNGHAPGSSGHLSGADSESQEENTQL
1-phosphatidylinositol 4,5-bisphosphate phosphodiesterase gamma-1, sequence (P19174 whole entry, the tested form may be a part): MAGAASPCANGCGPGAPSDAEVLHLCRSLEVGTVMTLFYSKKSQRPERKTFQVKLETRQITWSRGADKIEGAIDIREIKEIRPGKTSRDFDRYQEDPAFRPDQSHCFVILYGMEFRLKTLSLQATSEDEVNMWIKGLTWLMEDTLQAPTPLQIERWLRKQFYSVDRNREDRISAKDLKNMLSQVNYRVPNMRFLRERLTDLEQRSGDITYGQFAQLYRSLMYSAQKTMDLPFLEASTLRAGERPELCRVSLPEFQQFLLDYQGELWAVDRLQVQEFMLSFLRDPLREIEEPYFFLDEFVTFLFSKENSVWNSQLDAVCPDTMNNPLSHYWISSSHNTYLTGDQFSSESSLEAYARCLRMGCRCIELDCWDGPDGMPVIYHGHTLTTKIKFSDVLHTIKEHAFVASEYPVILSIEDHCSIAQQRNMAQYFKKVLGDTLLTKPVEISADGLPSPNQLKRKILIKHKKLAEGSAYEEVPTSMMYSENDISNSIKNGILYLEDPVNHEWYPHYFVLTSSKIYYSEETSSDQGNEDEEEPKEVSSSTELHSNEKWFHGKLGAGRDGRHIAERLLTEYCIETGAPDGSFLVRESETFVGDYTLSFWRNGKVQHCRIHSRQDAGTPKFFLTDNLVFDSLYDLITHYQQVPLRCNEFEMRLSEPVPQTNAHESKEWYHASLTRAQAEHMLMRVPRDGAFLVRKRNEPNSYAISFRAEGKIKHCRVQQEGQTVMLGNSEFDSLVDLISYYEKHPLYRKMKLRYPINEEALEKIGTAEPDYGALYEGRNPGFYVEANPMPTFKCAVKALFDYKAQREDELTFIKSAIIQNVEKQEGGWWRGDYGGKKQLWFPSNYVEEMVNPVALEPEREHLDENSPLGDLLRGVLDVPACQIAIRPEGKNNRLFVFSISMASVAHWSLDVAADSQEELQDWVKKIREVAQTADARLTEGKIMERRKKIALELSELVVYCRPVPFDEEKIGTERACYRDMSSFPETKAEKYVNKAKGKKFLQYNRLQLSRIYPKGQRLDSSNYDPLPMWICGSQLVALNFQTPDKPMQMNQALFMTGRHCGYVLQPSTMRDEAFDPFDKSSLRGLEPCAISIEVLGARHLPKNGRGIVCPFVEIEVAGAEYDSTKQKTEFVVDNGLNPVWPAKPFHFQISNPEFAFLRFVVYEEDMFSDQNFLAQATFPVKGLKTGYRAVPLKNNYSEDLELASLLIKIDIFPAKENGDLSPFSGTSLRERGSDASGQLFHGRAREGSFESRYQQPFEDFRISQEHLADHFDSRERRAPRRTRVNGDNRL

## O=C(Nc1ccccc1OC(=O)c1ccc(Cl)cc1)c1ccc(Cl)cc1
[1]
  EC50: 15.7 µM (inactive)
[2]
  IC50: > 9.97 µM (active)
[3]
  EC50: 4.89 µM (active)
[4]
  EC50: > 29.9 µM (inactive)
H4
  EC50: 13.7 µM (active)
[5]
  IC50: 7.96 µM (active)
[6]
  EC50: > 120 µM (not active)

## C=CCOc1ccccc1C(=O)/C=C1/C(=O)Nc2ccccc21
[7]
  IC50: 3.58 µM (active)

## CSc1nc(SCC(=O)O)c2c3c(sc2n1)COC(C)(C)C3
Coagulation factor XII
  IC50: > 50 µM (inactive)
Beta-lactamase [8]
  IC50: > 59.6 µM (inactive)
Beta-lactamase [9]
  IC50: > 59.6 µM (inactive)
Beta-lactamase [10]
  IC50: > 59.6 µM (inactive)

## Cc1cc(C)cc(NC(=O)CCc2nc(O)c3c4c(sc3n2)CCCC4)c1
[11]
  AC50: 37.5 µM (active)
[12]
  AC50: 0.91 µM (active)

## O=C(Nc1ccc(C(F)(F)F)cc1)c1ccc(NC(=O)C2CCCO2)cc1 (configuration not stated)
Beta-lactamase [13]
  IC50: 47.5 µM (inactive)
Beta-lactamase [14]
  IC50: > 59.6 µM (inactive)

## Cc1cccc(OC(C)C(=O)Nc2nc(-c3ccncc3)cs2)c1 (configuration not stated)
Vero
  AC50: 35.8 µM (active)

## Nc1ccc2c(c1)C(=NO)c1cc([N+](=O)[O-])ccc1-2
[15]
  IC50: 3.12 µM (active)
[16]
  IC50: 18.1 µM (active)

## CN(C(=O)c1ccccc1)C1c2c(ccc3ccccc23)OCC1CO (configuration not stated)
[17]
  IC50: > 122 µM (inactive)
[18]
  IC50: > 122 µM (inactive)

## COC(=O)C(CC#Cc1ccc2c(c1)[C@]1(C(=O)N2)[C@H](c2ccc(O)cc2)N2[C@H](c3ccccc3)[C@H](c3ccccc3)OC(=O)[C@H]2[C@@H]1C(=O)N1CCCCCCC1)C(=O)OC
[19]
  AC50: 104 µM (active)
